Laboratory results taken from BigSolDB 2.1.

O=C(O)c1cc(=O)[nH]c(=O)[nH]1
solubility (mole fraction)
Conditions	278.15 K	283.15 K	288.15 K	293.15 K	298.15 K	303.15 K	308.15 K	313.15 K	318.15 K	323.15 K
in DMF	0.00242	0.00305	0.00382	0.00473	0.00578	0.0071	0.00861	0.0108	0.0132	0.0157
in DMSO	–	–	–	0.0326	0.0394	0.0472	0.0563	0.0665	0.0781	0.0911
in THF	7.26e-05	8.12e-05	9.02e-05	0.0001	0.000112	0.000125	0.000138	0.000151	0.000167	0.000185
in acetone	9.3e-06	1.06e-05	1.22e-05	1.37e-05	1.56e-05	1.76e-05	1.95e-05	2.21e-05	2.49e-05	2.78e-05
in ethanol	1.71e-05	1.9e-05	2.09e-05	2.32e-05	2.57e-05	2.86e-05	3.17e-05	3.48e-05	3.88e-05	4.32e-05
in ethyl acetate	1.1e-06	1.2e-06	1.2e-06	1.3e-06	1.4e-06	1.5e-06	1.6e-06	1.8e-06	1.9e-06	2e-06
in isopropanol	1e-05	1.32e-05	1.72e-05	2.12e-05	2.67e-05	3.36e-05	4.18e-05	5.2e-05	6.37e-05	7.71e-05
in methanol	4.44e-05	5.24e-05	6.13e-05	7.19e-05	8.42e-05	9.82e-05	0.000115	0.000135	0.000157	0.000184
in methyl acetate	8.8e-06	9.4e-06	1.03e-05	1.15e-05	1.21e-05	1.31e-05	1.41e-05	1.53e-05	1.64e-05	1.76e-05
in n-butanol	1.47e-05	1.72e-05	2.12e-05	2.53e-05	2.97e-05	3.5e-05	4.06e-05	4.88e-05	5.67e-05	6.63e-05
in n-propanol	2.24e-05	2.57e-05	3e-05	3.42e-05	3.97e-05	4.61e-05	5.31e-05	6.09e-05	7.17e-05	8.18e-05
in water	4.57e-05	5.22e-05	5.97e-05	6.68e-05	7.56e-05	8.5e-05	9.5e-05	0.000107	0.000121	0.000136
